The results in this text go back to patent US8735414B2 (priority 2009, dated 2014).

In data set [1] the test system is bicistronic HCV replicon (replicon RNA, GenBank Accession No. AJ242654). Kind of data set: HCV Replicon Assay. The format is cell-based. Conditions: Hepatitis C virus, 72 h, read-out: Replicon IC50. A general note: In antiviral work, replicon cells carry a viral genome segment that copies itself.

Structures are written as SMILES.

Usually melting point stands for the temperature, or range, at which the solid turns liquid. As a reminder, the IC50 is the concentration at which inhibition is half-maximal.

Molecule `C[C@H](NS(=O)(=O)c1cnc(-c2c(C#N)c3ccc(OC(F)F)cc3n2CC2CC2)nc1)C(F)(F)F` [compound 398, 2-[3-cyano-1-(cyclopropylmethyl)-6-(difluoromethoxy)-1H-indol-2-yl]-N-[(2S)-1,1,1-trifluoropropan-2-yl]pyrimidine-5-sulfonamide] had a melting point of 211 to 212 °C. Moreover, the IC50 in data set [1] is under 500 nM.
`C[C@H](NS(=O)(=O)c1cnc(-c2c(C#N)c3cc(F)ccc3n2-c2ccccn2)nc1)C(F)(F)F` [compound 474, 2-[3-cyano-5-fluoro-1-(pyridin-2-yl)-1H-indol-2-yl]-N-[(2S)-1,1,1-trifluoropropan-2-yl]pyrimidine-5-sulfonamide]: the melting point lay within 209 to 210 °C. In addition, the IC50 in data set [1] is under 500 nM.
Take `CC(C)(C)S(=O)(=O)Nc1ccc(-c2c(C(N)=O)c3c(F)cc(C4CC4)cc3n2C2CCCCC2)nc1` [compound 1097, 2-{5-[(tert-butylsulfonyl)amino]pyridin-2-yl}-1-cyclohexyl-6-cyclopropyl-4-fluoro-1H-indole-3-carboxamide]: the melting point was 275 to 285 °C (dec.). In addition, the IC50 in data set [1] was under 500 nM.
The molecule `CC(C)NS(=O)(=O)c1cnc(-c2c(C#N)c3ccc(OC(F)F)cc3n2C2CCCCC2)nc1` [compound 473, 2-[3-cyano-1-cyclohexyl-6-(difluoromethoxy)-1H-indol-2-yl]-N-(propan-2-yl)pyrimidine-5-sulfonamide] showed a melting point of 176 to 179 °C. Also, in data set [1], the IC50 was under 500 nM.
`C[C@H](NS(=O)(=O)c1ccc(-c2c(C#N)c3ccc(F)cc3n2C2CCC2)nc1)C(F)(F)F` [compound 395, 6-(3-cyano-1-cyclobutyl-6-fluoro-1H-indol-2-yl)-N-[(2S)-1,1,1-trifluoropropan-2-yl]pyridine-3-sulfonamide] yielded a melting point of 171 to 172 °C. Also, the IC50 in data set [1] was under 500 nM.
Molecule `COc1ccc2c(C#N)c(-c3ccc(S(=O)(=O)NC(CF)CF)cn3)n(C3CCC3)c2c1` [compound 229, 6-(3-cyano-1-cyclobutyl-6-methoxy-1H-indol-2-yl)-N-(1,3-difluoropropan-2-yl)pyridine-3-sulfonamide] gave a melting point of 174 to 177 °C. In addition, in data set [1], the IC50 is under 500 nM.
With `Cc1ccc2c(C#N)c(-c3ccc(S(=O)(=O)NC4(C(F)(F)F)CC4)cn3)n(CC3CC3)c2c1` [compound 255, 6-[3-cyano-1-(cyclopropylmethyl)-6-methyl-1H-indol-2-yl]-N-[1-(trifluoromethyl)cyclopropyl]pyridine-3-sulfonamide], the melting point lay in the range of 191 to 195 °C. Besides, the IC50 in data set [1] was under 500 nM.
On the same counts, the results for `CCCS(=O)(=O)Nc1ccc(-c2c(C#N)c3ccc(Oc4ncccn4)cc3n2C2CCC2)nc1` [compound 271, N-{6-[3-cyano-1-cyclobutyl-6-(pyrimidin-2-yloxy)-1H-indol-2-yl]pyridin-3-yl}propane-1-sulfonamide] are 206 to 208 °C and 500 to 2000 nM.
Consider `N#Cc1c(-c2ncc(S(=O)(=O)NC(CF)CF)cn2)n(C2CCC2)c2cc(OC(F)(F)F)ccc12` [compound 177, 2-[3-cyano-1-cyclobutyl-6-(trifluoromethoxy)-1H-indol-2-yl]-N-(1,3-difluoropropan-2-yl)pyrimidine-5-sulfonamide], for which the melting point lay in the range of 202 to 204 °C. The IC50 in data set [1] is under 500 nM.
For `CC(=O)c1ccc(-n2c(-c3ccc(S(=O)(=O)N[C@@H](C)C(F)(F)F)cn3)c(C#N)c3cc(F)c(C)cc32)s1` [compound 1035, 6-[1-(5-acetylthiophen-2-yl)-3-cyano-5-fluoro-6-methyl-1H-indol-2-yl]-N-[(2S)-1,1,1-trifluoropropan-2-yl]pyridine-3-sulfonamide], the melting point was in the range of 235.6 to 238.7 °C. For the same molecule, the IC50 in data set [1] was in the range of 500 to 2000 nM.
The molecule `CCc1cc2c(cc1F)c(C#N)c(-c1ccc(S(=O)(=O)NC(C)(C)C)cn1)n2C1CCC1` [compound 764, N-tert-butyl-6-(3-cyano-1-cyclobutyl-6-ethyl-5-fluoro-1H-indol-2-yl)pyridine-3-sulfonamide] displayed a melting point of 186 to 188 °C. Further, the IC50 in data set [1] is under 500 nM.
As to `N#Cc1c(-c2ccc(S(=O)(=O)NC(CF)CF)cn2)n(CC2CC2)c2ccc(F)cc12` [compound 58, 6-[3-cyano-1-(cyclopropylmethyl)-5-fluoro-1H-indol-2-yl]-N-(1,3-difluoropropan-2-yl)pyridine-3-sulfonamide], the melting point is 162 to 164 °C. Moreover, in data set [1], the IC50 was under 500 nM.
On the same counts, the results for `CCOc1cc2c(cc1F)c(C#N)c(-c1ccc(S(=O)(=O)N[C@@H](C)C(F)(F)F)cn1)n2C1CCC1` [compound 726, 6-(3-cyano-1-cyclobutyl-6-ethoxy-5-fluoro-1H-indol-2-yl)-N-[(2S)-1,1,1-trifluoropropan-2-yl]pyridine-3-sulfonamide] are 193 to 196 °C and under 500 nM.
Molecule `COc1cc2c(C#N)c(-c3ccc(S(=O)(=O)N[C@H](C)C(F)(F)F)cn3)n(C3CCCC3)c2cc1C` [compound 694, 6-(3-cyano-1-cyclopentyl-5-methoxy-6-methyl-1H-indol-2-yl)-N-[(2R)-1,1,1-trifluoropropan-2-yl]pyridine-3-sulfonamide] came in with a melting point of 210.5 to 211 °C. Also, the IC50 in data set [1] was 2000 to 5000 nM.
On to `C[C@H](NS(=O)(=O)c1cnc(-c2c(C#N)c3ccc(F)cc3n2C2CCCCC2)nc1)C(F)(F)F` [compound 411, 2-(3-cyano-1-cyclohexyl-6-fluoro-1H-indol-2-yl)-N-[(2S)-1,1,1-trifluoropropan-2-yl]pyrimidine-5-sulfonamide], for which the melting point lay in the range of 224 to 226 °C. Besides, the IC50 in data set [1] fell in the range of 500 to 2000 nM.
With `CC(C)NS(=O)(=O)c1cnc(-c2c(C#N)c3ccc(OC(F)(F)F)cc3n2C2CCC2)nc1` [compound 116, 2-[3-cyano-1-cyclobutyl-6-(trifluoromethoxy)-1H-indol-2-yl]-N-(propan-2-yl)pyrimidine-5-sulfonamide], the melting point lay within 200 to 203 °C. For the same molecule, the IC50 in data set [1] is under 500 nM.
On the same counts, the results for `Cc1cc2c(cc1F)c(C#N)c(-c1ccc(S(=O)(=O)NC(C)(C)C(F)(F)F)cn1)n2C1CCCC1` [compound 681, 6-(3-cyano-1-cyclopentyl-5-fluoro-6-methyl-1H-indol-2-yl)-N-(1,1,1-trifluoro-2-methylpropan-2-yl)pyridine-3-sulfonamide] are 223 to 225 °C and under 500 nM.
On the same counts, the results for `Cc1cc2c(cc1F)c(C#N)c(-c1ccc(NS(=O)(=O)N[C@@H](C)C(F)(F)F)cn1)n2C1CCCC1` [compound 836, N-[6-(3-cyano-1-cyclopentyl-5-fluoro-6-methyl-1H-indol-2-yl)pyridin-3-yl]-N′-[(2S)-1,1,1-trifluoropropan-2-yl]sulfuric diamide] are 206 to 208 °C and 500 to 2000 nM.
In turn, `N#Cc1c(-c2ncc(S(=O)(=O)NC(CF)CF)cn2)n(C2CCC2)c2ccc(CF)cc12` [compound 377, 2-[3-cyano-1-cyclobutyl-5-(fluoromethyl)-1H-indol-2-yl]-N-(1,3-difluoropropan-2-yl)pyrimidine-5-sulfonamide] had a melting point of 131 to 134 °C. The IC50 in data set [1] was under 500 nM.
